Assay [1] has as its target T1, Carnitine O-palmitoyltransferase 2, mitochondrial (Rattus norvegicus, UniProt P18886).
T1 sequence (P18886 whole entry): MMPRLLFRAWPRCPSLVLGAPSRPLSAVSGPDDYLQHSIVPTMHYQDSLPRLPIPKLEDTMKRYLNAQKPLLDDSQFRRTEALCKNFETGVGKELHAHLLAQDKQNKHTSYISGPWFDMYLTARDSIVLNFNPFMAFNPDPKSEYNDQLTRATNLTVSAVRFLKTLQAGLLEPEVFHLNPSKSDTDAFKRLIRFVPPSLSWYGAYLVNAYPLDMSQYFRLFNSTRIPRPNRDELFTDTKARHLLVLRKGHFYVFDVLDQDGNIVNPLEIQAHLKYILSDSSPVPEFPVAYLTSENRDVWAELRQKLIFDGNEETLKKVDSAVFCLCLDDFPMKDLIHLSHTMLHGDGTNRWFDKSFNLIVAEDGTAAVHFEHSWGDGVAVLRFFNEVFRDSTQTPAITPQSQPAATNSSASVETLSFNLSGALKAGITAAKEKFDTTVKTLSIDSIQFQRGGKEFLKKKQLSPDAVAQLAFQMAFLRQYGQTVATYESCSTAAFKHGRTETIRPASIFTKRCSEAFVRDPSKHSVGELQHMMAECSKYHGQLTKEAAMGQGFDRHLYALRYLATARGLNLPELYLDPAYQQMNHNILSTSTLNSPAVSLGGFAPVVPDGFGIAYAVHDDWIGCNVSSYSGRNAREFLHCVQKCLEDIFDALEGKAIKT
Kind of assay: Inhibition of rat CPT2.

Assay [2] addresses T2, Carnitine O-palmitoyltransferase 1, liver isoform (Rattus norvegicus, UniProt P32198).
T2 sequence (P32198 whole entry): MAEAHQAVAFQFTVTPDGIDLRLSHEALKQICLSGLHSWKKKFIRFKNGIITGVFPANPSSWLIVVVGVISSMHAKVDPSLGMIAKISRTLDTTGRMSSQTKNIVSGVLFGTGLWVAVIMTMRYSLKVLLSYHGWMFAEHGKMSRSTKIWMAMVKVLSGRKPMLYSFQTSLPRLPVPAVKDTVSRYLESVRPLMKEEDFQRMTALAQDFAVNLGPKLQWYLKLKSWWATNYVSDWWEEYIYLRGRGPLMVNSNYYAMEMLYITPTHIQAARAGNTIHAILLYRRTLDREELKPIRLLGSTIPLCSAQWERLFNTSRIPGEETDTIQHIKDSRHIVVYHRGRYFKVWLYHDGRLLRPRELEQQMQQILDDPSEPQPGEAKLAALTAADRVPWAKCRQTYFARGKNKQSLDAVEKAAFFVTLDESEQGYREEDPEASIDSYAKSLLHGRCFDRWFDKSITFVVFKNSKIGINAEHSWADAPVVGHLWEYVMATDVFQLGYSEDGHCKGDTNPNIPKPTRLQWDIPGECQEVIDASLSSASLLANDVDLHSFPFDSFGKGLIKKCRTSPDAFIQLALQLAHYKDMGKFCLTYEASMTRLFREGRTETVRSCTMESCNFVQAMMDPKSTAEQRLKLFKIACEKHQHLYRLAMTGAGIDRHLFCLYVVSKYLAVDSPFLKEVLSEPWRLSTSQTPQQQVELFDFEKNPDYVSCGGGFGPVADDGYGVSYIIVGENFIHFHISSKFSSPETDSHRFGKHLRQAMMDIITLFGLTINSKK
Kind of assay: Inhibition of rat CPT1A.

Assay [3] concerns the target T3, Carnitine O-palmitoyltransferase 1, liver isoform (Homo sapiens, UniProt P50416).
T3 sequence (P50416 whole entry): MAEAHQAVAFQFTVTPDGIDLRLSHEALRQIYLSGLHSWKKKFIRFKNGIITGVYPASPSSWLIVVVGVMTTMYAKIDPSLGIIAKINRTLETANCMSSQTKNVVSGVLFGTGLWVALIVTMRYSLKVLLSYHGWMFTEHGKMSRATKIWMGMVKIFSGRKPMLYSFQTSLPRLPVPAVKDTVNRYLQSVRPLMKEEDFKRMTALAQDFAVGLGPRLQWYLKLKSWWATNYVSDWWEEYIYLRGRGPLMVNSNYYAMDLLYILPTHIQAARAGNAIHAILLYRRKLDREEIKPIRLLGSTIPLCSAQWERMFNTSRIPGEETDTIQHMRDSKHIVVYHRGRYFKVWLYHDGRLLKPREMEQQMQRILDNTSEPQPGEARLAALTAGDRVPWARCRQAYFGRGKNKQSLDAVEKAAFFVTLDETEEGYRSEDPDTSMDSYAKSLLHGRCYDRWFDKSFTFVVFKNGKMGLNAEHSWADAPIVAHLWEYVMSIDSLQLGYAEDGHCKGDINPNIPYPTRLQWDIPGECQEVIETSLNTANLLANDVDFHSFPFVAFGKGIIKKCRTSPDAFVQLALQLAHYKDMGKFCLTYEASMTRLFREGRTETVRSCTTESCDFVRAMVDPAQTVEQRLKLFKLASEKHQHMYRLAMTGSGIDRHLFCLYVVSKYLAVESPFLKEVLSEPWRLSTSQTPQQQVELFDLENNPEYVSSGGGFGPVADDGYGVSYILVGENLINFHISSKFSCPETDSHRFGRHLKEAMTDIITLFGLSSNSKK
Kind of assay: Inhibition of human CPT1A.

Assay [4] in a line: Inhibition of human FAO.
A short description of assay [5]: Inhibition of rat FAO.
The nature of assay [6]: Inhibition of FAO.
Assay [7] in a line: Inhibition of carnitine palmitoyltransferase in 18 hr fasted rat hepatocytes. The class given is cell-based. Particulars: hepatocyte.
The nature of assay [8]: Inhibition of carnitine palmitoyltransferase in 18 hr fasted rat liver homogenates. Type of assay: tissue-based.
Assay [9] has as its target T4, Carnitine O-palmitoyltransferase 1, muscle isoform (Homo sapiens, UniProt Q92523).
T4 sequence (Q92523 whole entry): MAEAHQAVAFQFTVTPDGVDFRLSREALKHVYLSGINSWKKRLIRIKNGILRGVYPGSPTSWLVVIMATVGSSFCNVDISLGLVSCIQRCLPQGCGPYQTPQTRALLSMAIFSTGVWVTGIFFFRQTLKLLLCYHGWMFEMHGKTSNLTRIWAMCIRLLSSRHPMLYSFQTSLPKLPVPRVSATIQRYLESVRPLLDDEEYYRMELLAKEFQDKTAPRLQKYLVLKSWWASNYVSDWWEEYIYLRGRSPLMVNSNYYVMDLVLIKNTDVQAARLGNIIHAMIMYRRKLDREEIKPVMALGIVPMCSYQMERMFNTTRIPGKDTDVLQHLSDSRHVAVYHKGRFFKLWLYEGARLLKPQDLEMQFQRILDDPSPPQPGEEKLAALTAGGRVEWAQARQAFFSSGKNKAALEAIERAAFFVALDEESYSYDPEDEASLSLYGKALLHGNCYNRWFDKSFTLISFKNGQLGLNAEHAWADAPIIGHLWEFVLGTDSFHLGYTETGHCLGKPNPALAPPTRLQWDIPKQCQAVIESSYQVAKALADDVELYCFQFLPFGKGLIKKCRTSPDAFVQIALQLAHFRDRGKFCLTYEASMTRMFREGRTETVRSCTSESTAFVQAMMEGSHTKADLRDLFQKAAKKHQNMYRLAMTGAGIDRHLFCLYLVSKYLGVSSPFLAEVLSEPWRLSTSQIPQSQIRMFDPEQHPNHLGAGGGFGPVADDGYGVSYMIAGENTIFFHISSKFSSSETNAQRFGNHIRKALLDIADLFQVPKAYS
Kind of assay: Inhibition of human CPT1B.

Assay [10] addresses T5, Carnitine O-palmitoyltransferase 2, mitochondrial (Homo sapiens, UniProt P23786).
T5 sequence (P23786 whole entry): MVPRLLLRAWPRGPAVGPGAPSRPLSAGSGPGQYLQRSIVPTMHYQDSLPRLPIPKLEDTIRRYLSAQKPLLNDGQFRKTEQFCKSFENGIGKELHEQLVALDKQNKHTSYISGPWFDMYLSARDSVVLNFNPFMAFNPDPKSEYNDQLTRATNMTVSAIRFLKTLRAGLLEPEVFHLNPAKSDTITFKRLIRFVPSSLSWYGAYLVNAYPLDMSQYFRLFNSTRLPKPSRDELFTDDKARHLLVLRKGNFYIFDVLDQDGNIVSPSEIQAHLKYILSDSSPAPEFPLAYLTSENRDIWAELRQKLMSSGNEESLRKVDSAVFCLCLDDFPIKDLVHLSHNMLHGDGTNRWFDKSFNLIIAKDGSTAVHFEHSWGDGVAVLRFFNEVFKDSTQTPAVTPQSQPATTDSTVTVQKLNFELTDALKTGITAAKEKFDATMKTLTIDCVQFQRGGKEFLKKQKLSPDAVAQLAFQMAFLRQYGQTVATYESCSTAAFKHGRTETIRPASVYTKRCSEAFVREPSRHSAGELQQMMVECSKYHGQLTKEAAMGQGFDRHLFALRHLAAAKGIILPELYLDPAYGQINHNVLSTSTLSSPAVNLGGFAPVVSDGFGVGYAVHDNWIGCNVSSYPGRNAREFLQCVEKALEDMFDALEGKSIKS
Kind of assay: Inhibition of human CPT2.

Assay [11] has as its target T2, Carnitine O-palmitoyltransferase 1, liver isoform. Kind of assay: Inhibition of rat CPT1 in rat mitochondria.
Assay [12] addresses T1, Carnitine O-palmitoyltransferase 2, mitochondrial. Kind of assay: Inhibition of rat CPT2 in rat mitochondria.
The target of assay [13] is Carnitine O-palmitoyltransferase 1, muscle isoform (Rattus norvegicus, UniProt Q63704). Kind of assay: Inhibition of […] in rat myocardium. Type of assay: tissue-based.
Sequence of Carnitine O-palmitoyltransferase 1, muscle isoform (Rattus norvegicus, UniProt Q63704) (Q63704 whole entry, canonical isoform): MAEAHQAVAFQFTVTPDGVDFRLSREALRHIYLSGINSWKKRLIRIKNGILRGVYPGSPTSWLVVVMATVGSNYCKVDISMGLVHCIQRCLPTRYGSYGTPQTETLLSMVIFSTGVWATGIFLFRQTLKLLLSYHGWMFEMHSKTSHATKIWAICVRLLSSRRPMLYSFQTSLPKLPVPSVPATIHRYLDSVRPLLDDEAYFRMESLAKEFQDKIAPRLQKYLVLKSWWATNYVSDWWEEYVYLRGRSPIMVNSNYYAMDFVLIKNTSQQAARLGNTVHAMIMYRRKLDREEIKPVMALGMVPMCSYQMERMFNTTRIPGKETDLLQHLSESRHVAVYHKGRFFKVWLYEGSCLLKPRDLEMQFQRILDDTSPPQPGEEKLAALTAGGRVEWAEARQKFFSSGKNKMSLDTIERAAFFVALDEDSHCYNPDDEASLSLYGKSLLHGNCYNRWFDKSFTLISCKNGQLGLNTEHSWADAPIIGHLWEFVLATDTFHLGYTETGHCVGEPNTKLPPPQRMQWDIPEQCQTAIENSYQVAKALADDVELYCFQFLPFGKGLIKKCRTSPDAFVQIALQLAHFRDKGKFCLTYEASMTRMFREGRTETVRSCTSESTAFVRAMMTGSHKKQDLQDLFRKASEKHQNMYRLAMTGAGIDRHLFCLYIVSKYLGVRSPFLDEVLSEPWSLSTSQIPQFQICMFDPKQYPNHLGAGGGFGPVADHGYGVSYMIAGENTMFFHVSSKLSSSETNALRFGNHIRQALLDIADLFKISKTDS

As a reminder, the IC50 is the concentration that inhibits the measured activity by half. A higher IC50 goes with lower potency. Consider `CCCCc1ccc(NC(=O)OCCN2CCCCC2CC(C2CCCCC2)C2CCCCC2)cc1` (stereo not drawn), for which the IC50 in assay [1] and in [2] was > 10 µM each time.

For the compound `CCCCCCCCCCCCCCCC(=O)N[C@H](CC(=O)[O-])C[N+](C)(C)C` [PALMITOYLAMINOCARNITINE], the half-inhibitory concentration (IC50) turned out to be 2670 nM in assay [3]; 2.8 µM in assay [4]; 270 nM in assay [5]; 50 nM in [6]; 1200 nM in assay [7]; 1300 nM in assay [8]. For the same compound, the IC50 was determined as 21.7 µM in assay [9] and 140 nM in assay [10].

`COc1cccc2c1C(=O)c1c(O)c3c(c(O)c1C2=O)C[C@@](O)(C(=O)CO)C[C@@H]3O[C@H]1C[C@H](N)[C@H](O)[C@H](C)O1` [DOXORUBICIN]: the 50% inhibitory concentration (IC50) is 250 µM in [11] and > 100 µM in assay [12].

Regarding `COc1ccc(CN2CCNCC2)c(OC)c1OC` [TRIMETAZIDINE], the IC50 in [3] is > 100000 nM; in assay [4], 20.5 µM; in assay [5], > 100000 nM; in assay [13], 1300 nM; in assay [9], > 100 µM; in assay [10], > 100000 nM.

The record behind these values is ChEMBL document CHEMBL2216752, “Carnitine palmitoyltransferase (CPT) modulators: a medicinal chemistry perspective on 35 years of research” (J Med Chem, 2011).
